Test results taken from ChEMBL document CHEMBL1133238, “Structure-activity relationships of neuropeptide Y Y1 receptor antagonists related to BIBP 3226” (Bioorg Med Chem Lett, 2000).
Each block holds one compound with its values, some of them ahead of it.

What was measured:
[1] = target: T1, Neuropeptide Y receptor type 1 (Homo sapiens, UniProt P25929); assay: NPY Y1-antagonistic activity in HEL cells by measuring the inhibition of porcine NPY (10 nM) stimulated increase in the intracellular [Ca2+] concentration in a FURA-assay.; type: functional, cell-based
T1 sequence (P25929 whole entry): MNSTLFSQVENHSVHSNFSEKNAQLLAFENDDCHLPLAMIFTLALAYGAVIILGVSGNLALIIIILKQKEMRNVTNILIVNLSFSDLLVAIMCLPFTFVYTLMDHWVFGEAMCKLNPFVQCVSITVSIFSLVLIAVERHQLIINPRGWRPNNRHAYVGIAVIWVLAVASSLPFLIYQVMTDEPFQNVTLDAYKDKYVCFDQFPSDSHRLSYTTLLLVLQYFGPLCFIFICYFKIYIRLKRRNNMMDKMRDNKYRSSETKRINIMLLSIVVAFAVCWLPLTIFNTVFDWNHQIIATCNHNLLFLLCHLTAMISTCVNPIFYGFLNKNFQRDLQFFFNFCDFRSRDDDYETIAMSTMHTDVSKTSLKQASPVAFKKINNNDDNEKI

[2] = target: T2, Neuropeptide Y receptor type 2 (Homo sapiens, UniProt P49146); assay: Inhibition of binding of [3H]propionyl-NPY (1 nM) to Neuropeptide Y receptor type 2 in SMS-KAN cell membranes
T2 sequence (P49146 whole entry): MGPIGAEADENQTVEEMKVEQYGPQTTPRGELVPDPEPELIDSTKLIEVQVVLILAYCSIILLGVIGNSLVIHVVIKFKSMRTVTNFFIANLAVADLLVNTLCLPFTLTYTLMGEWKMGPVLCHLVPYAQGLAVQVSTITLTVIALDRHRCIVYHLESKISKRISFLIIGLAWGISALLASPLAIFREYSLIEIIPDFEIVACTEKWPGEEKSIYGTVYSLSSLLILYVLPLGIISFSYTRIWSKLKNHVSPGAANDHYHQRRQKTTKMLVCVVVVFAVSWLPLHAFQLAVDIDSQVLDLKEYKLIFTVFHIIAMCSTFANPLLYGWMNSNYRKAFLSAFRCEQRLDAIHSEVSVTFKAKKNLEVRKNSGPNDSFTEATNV

[3] = target: T3, Neuropeptide Y receptor type 5 (Homo sapiens, UniProt Q15761); assay: Inhibition of binding of [3H]propionyl-NPY (1 nM) to Neuropeptide Y receptor type 5 in HEC-1-B cells; type: cell-based
T3 sequence (Q15761 whole entry): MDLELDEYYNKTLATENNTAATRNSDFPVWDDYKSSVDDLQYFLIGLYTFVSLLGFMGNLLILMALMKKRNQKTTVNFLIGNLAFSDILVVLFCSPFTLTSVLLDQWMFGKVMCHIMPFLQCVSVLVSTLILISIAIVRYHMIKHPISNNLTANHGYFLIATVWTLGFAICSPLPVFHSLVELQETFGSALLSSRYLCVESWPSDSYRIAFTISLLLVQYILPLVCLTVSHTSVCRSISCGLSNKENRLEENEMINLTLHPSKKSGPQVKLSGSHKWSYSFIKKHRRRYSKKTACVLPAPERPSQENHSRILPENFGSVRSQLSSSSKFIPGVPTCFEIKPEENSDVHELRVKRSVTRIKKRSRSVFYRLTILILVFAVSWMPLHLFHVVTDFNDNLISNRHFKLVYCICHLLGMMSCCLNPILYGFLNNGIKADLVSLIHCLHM

[4] = target: T1, Neuropeptide Y receptor type 1; assay: Inhibition of binding of [3H]propionyl-NPY (1 nM) to Neuropeptide Y receptor type 1 in SK-N-MC cells; type: cell-based
[5] = target: Neuropeptide Y receptor type 1 (Homo sapiens) (UniProt P25929); assay: NPY Y1-antagonistic activity in HEL cells by measuring the inhibition of porcine NPY (10 nM) stimulated increase in the intracellular [Ca2+] concentration in a FURA-assay;Inactive, less than 20% inhibition at […]

Structure (SMILES): N=C(NCCCc1ccccc1)NCCCC(NC(=O)Cc1ccc(-c2ccccc2)cc1)C(=O)N1CCCc2cc(O)ccc2C1 (configuration not stated)
- IC50 ([1]; read-out: IC50): 11.9 µM
- IC50 [2]: 78 µM
- IC50 [3]: 0.77 µM
- IC50 [4]: 22 µM

Structure (SMILES): N=C(N)NCCCC(NC(=O)Cc1ccc(-c2ccccc2)cc1)C(=O)N[C@H]1CCc2ccccc21 (some centres not stated)
- IC50 ([1]; hel): Not Active

Structure (SMILES): N=C(N)NCCCC(NC(=O)C(c1ccccc1)c1ccccc1)C(=O)N[C@@H]1CCc2ccccc21 (some centres not stated)
- IC50 ([1]; read-out: IC50): 21 µM

Structure (SMILES): N=C(N)NCCCC(NC(=O)C(c1ccccc1)c1ccccc1)C(=O)N[C@@H](C(N)=O)c1ccc(O)cc1 (some centres not stated)
- IC50 ([1]; read-out: IC50): 8.1 µM

Structure (SMILES): N=C(NCCCc1ccccc1)NCCCC(NC(=O)Cc1ccc(-c2ccccc2)cc1)C(=O)N1CCCc2ccccc2C1 (configuration not stated)
- IC50 ([1]; hel): Not Active

Structure (SMILES): N=C(N)NCCCC(NC(=O)C(c1ccccc1)(c1ccccc1)c1ccccc1)C(=O)NCc1ccccc1 (configuration not stated)
- IC50 [5]: Not Active

Structure (SMILES): N=C(N)NCCCC(NC(=O)Cc1ccc(-c2ccccc2)cc1)C(=O)NCc1ccccc1 (configuration not stated)
- IC50 ([1]; read-out: IC50): 21.8 µM

Structure (SMILES): N=C(N)NCCCC(NC(=O)C(c1ccccc1)c1ccccc1)C(=O)NCCc1ccccn1 (configuration not stated)
- IC50 ([1]; read-out: IC50): 11.5 µM

Structure (SMILES): N=C(N)NCCCC(NC(=O)Cc1ccc(-c2ccccc2)cc1)C(=O)N1CCCc2ccccc2C1 (configuration not stated)
- IC50 ([1]; read-out: IC50): 76 µM

Structure (SMILES): N=C(N)NCCCC(NC(=O)C(c1ccccc1)c1ccccc1)C(=O)N[C@@H](C(N)=O)c1ccccc1 (some centres not stated)
- IC50 ([1]; read-out: IC50): 4.6 µM
- IC50 [2]: > 400 µM
- IC50 [3]: 163 µM
- IC50 [4]: 2.4 µM

Structure (SMILES): N=C(N)NCCCC(NC(=O)C(c1ccccc1)(c1ccccc1)c1ccccc1)C(=O)N1CCCc2ccccc2C1 (configuration not stated)
- IC50 ([1]; read-out: IC50): 51 µM

Structure (SMILES): N=C(N)NCCCC(NC(=O)C(c1ccccc1)c1ccccc1)C(=O)N[C@@H]1C[C@H](CO)c2ccccc21 (some centres not stated)
- IC50 [5]: Not Active

Structure (SMILES): N=C(N)NCCCC(NC(=O)C(c1ccc(Cl)cc1)c1ccc(Cl)cc1)C(=O)N[C@H]1CCc2ccccc21 (some centres not stated)
- IC50 ([1]; read-out: IC50): > 10 µM

Structure (SMILES): N=C(N)NCCCC(NC(=O)C(c1ccccc1)c1ccccc1)C(=O)N[C@H](C(N)=O)c1ccccc1 (some centres not stated)
- IC50 ([1]; read-out: IC50): 7.5 µM

Structure (SMILES): N=C(N)NCCCC(NC(=O)C(c1ccccc1)c1ccccc1)C(=O)NCc1ccccn1 (configuration not stated)
- IC50 ([1]; read-out: IC50): 3.75 µM

Structure (SMILES): N=C(N)NCCCC(NC(=O)C(c1ccccc1)c1ccccc1)C(=O)N[C@@H](CO)c1ccccc1 (some centres not stated)
- IC50 ([1]; read-out: IC50): 22.3 µM

Structure (SMILES): N=C(N)NCCCC(NC(=O)C(c1ccccc1)c1ccccc1)C(=O)NCc1ccc(O)cc1 (configuration not stated)
- IC50 [2]: > 100 µM
- IC50 [3]: 80 µM

Structure (SMILES): N=C(N)NCCCC(NC(=O)C(c1ccccc1)c1ccccc1)C(=O)NCC1CCCCN1 (racemic)
- IC50 [5]: Not Active

Continued, values first:

- IC50 ([1]; read-out: IC50): 0.11 µM
Structure (SMILES): N=C(N)NCCCC(NC(=O)C(c1ccccc1)c1ccccc1)C(=O)NCc1ccccc1 (configuration not stated)

- IC50 ([1]; read-out: IC50): 1.4 µM
Structure (SMILES): N=C(N)NCCCC(NC(=O)C(c1ccccc1)c1ccccc1)C(=O)N[C@H]1CCc2ccccc21 (some centres not stated)

- IC50 ([1]; read-out: IC50): 1.1 µM
Structure (SMILES): N=C(N)NCCCC(NC(=O)C(c1ccc(Cl)cc1)c1ccc(Cl)cc1)C(=O)N1CCCc2ccccc2C1 (configuration not stated)

- IC50 ([1]; read-out: IC50): 0.081 µM
- IC50 [2]: 97 µM
- IC50 [3]: 2.6 µM
- IC50 [4]: 0.17 µM
Structure (SMILES): N=C(N)NCCCC(NC(=O)C(c1ccccc1)c1ccc(Cl)cc1)C(=O)NCc1ccccc1 (configuration not stated)

- IC50 ([1]; read-out: IC50): 0.2 µM
- IC50 [2]: 177 µM
- IC50 [3]: 48 µM
- IC50 [4]: 0.15 µM
Structure (SMILES): C[C@@H](NC(=O)C(CCCNC(=N)N)NC(=O)C(c1ccccc1)c1ccccc1)c1ccccc1 (some centres not stated)

- IC50 ([1]; read-out: IC50): 3 µM
- IC50 [2]: 59 µM
- IC50 [3]: 11.9 µM
- IC50 [4]: 5.3 µM
Structure (SMILES): N=C(N)NCCCC(NC(=O)C(c1ccccc1)c1ccc(Cl)cc1)C(=O)N[C@H]1CCc2ccccc21 (some centres not stated)

- IC50 ([1]; read-out: IC50): 0.1 µM
Structure (SMILES): N=C(N)NCCCC(NC(=O)C(c1ccc(Cl)cc1)c1ccc(Cl)cc1)C(=O)NCc1ccccc1 (configuration not stated)

- IC50 ([1]; read-out: IC50): 0.9 µM
- IC50 [2]: 540 µM
- IC50 [3]: 68 µM
- IC50 [4]: 0.184 µM
Structure (SMILES): N=C(N)NCCCC(NC(=O)C(c1ccccc1)c1ccccc1)C(=O)N[C@H](CO)c1ccccc1 (some centres not stated)

- IC50 ([1]; read-out: IC50): 0.28 µM
- IC50 [2]: 247 µM
- IC50 [3]: 25 µM
- IC50 [4]: 0.67 µM
Structure (SMILES): N=C(N)NCCCC(NC(=O)C(c1ccccc1)c1ccccc1)C(=O)N1CCCc2cc(O)ccc2C1 (configuration not stated)

- IC50 ([1]; read-out: IC50): 2.5 µM
Structure (SMILES): C[C@H](NC(=O)C(CCCNC(=N)N)NC(=O)C(c1ccccc1)c1ccccc1)c1ccccc1 (some centres not stated)

- IC50 ([1]; read-out: IC50): 1.1 µM
Structure (SMILES): N=C(N)NCCCC(NC(=O)C(c1ccccc1)c1ccc(Cl)cc1)C(=O)N1CCCc2ccccc2C1 (configuration not stated)

- IC50 ([1]; read-out: IC50): 2.2 µM
Structure (SMILES): N=C(N)NCCCC(NC(=O)C(c1ccccc1)c1ccccc1)C(=O)N1CCCc2ccccc2C1 (configuration not stated)

- IC50 ([1]; read-out: IC50): 0.06 µM
- IC50 [2]: 575 µM
- IC50 [3]: 75 µM
- IC50 [4]: 0.019 µM
Structure (SMILES): CC(NC(=O)C(CCCN=C(N)N)NC(=O)C(c1ccccc1)c1ccccc1)c1ccc(O)cc1 (racemic)

- IC50 ([1]; read-out: IC50): 1 µM
Structure (SMILES): N=C(N)NCCCC(NC(=O)C(c1ccccc1)c1ccccc1)C(=O)NC1CCc2cc(O)ccc21 (racemic)
